According to patent US20250325699A1, “POLYPEPTIDES AND METHODS OF USE” (Aldevron, LLC, priority 2022, published 2025):

Test system: HepG2 cells
Assay: In vitro transfection of HepG2 cells, normalized luciferase activity
Assay type: cell-based
Conditions: 48 hours
Procedure: FIGS. 4A and 4B are graphs showing normalized luciferase activity in HepG2 cells 48 hours after in vitro transfection. Lipid nanoparticles were formed with RALA-NLS polypeptides and 250 ng or 500 ng C3-fLuc1157 DNA at a molar ratio of 700, 1400, 2100, or 2800. […]
FIGS. 4A and 4B are graphs showing normalized luciferase activity in HepG2 cells 48 hours after in vitro transfection. Lipid nanoparticles were formed with RALA-NLS polypeptides and 250 ng or 500 ng C^3-fLuc1157 DNA at a molar ratio of 700, 1400, 2100, or 2800.

WEARLARALARALARHLARALARALRACEAPKKKRKV [RALA-NLS]
transfection efficiency in slightly cationic LNPs (20% DOTAP) (FIG. 4B (20% DOTAP) versus FIG. 4A (DOPE)): more pronounced
transfection with higher amounts of DNA (500 ng) as compared to lower amounts (250 ng) (FIGS. 4A and 4B): more efficient transfection
transfection improvement compared to LNP without polypeptide (LNP with 700× polypeptide (molar ratio to C^3-fLuc1157 DNA)): ~20 fold
transfection improvement compared to LNP without polypeptide (LNP with 1400× polypeptide (molar ratio to C^3-fLuc1157 DNA)): ~35 fold
transfection improvement compared to LNP without polypeptide (LNP with 2100× polypeptide (molar ratio to C^3-fLuc1157 DNA)): ~50 fold
transfection improvement compared to LNP without polypeptide (LNP with 2800× polypeptide (molar ratio to C^3-fLuc1157 DNA)): ~65 fold
